In US4716222A, “Substrates for hydrolases” (Hoechst Aktiengesellschaft, priority 1984, dated 1987):
Where two headings read alike, the source gives them in different places. One block for each molecule: values may come before it.

Legend:
β-glucosidase = assay: Determination of β-glucosidase activity in a urine sample; format: biochemical, human; conditions: for Absorbance Difference/min delta A/min: T = 25° C.
Description: The determination of β-glucosidase activity in human urine has hitherto not been possible with the usual assays because of their limited sensitivity.

[1] = Extinction coefficients and absorption maxima of dyes at different pH values; format: physicochemical
pKa of the dyes A-OH = format: physicochemical
Description: The compounds of the formula A--O--B can be used as substrates for the detection and the determination of hydrolases. The dye A--OH, which is liberated on cleavage, has appreciable advantages over those of the state of the art. […] This means that even in the pH range below 7 there is compared with p-nitrophenol, a considerably higher extinction at the same molarity, so that the new substrates prepared from these dyes can therefore be measured with considerably greater sensitivity.

IgE = assay: Determination of IgE with a state of the art enzyme immunoassay; conditions: same incubation periods; for absorbance change: measuring wavelength 405 nm, same sample
Experimental: A substantial increase in sensitivity could be achieved using the new substrates in an enzyme immunoassay of the state of the art. In this assay the IgE concentration is determined, as a measure of an allergy by means of the indirect antibody technique. With the same incubation periods for the different substrates, an approximately 4.3-fold higher absorbance for resorufin-β-galactoside (compound S6) and an approximately 1.7-fold higher absorbance for 3-hydroxy-2-nitropyridine-β-galacto-side was measured than for the commercially available o-nitrophenyl-β-galactoside.

α-amylase = assay: Determination of α-amylase activity in a urine sample without auxiliary enzyme α-glucosidase; format: biochemical; conditions: for delta A/min / absorbance change, fold greater than with the nitrophenyl derivative: urine sample; for delta A/min: without auxiliary enzyme α-glucosidase
Experimental: For determination of α-amylase, the measured extinction changes were compared for the following new substrates: 2H-7-O-(α-D-maltotriosyl)-4-methyl-8-nitrobenzopyran-2-one (compound S10), the corresponding maltotetraosyl compound (compound S11) as well as o-nitrophenyl α-maltotrioside.
585 mg of NaCl and 200 mg of compound S10 were dissolved in 100 ml of M/15 phosphate buffer, pH 6.0. 20 μl of urine were pipetted into 1 ml of this solution which was thoroughly mixed. The change in absorbance at 365 nm was continuously recorded in a photometer with a pen recorder attached. The change in absorbance per miute (delta A/min) was calculated from the recording on the pen recorder, and the enzyme activity (U/L) was calculated using the following formula: [formula] 1.02=assay volume including the sample, in ml 0.02=sample volume in ml

acid phosphatase = molecular target: T1, acid phosphatase (Homo sapiens, UniProt P15309); assay: Kinetic determination of acid phosphatase in seminal plasma; format: biochemical
T1 construct: from tissue; host or cells: seminal plasma, diluted 1:101
T1 sequence (P15309 33-386): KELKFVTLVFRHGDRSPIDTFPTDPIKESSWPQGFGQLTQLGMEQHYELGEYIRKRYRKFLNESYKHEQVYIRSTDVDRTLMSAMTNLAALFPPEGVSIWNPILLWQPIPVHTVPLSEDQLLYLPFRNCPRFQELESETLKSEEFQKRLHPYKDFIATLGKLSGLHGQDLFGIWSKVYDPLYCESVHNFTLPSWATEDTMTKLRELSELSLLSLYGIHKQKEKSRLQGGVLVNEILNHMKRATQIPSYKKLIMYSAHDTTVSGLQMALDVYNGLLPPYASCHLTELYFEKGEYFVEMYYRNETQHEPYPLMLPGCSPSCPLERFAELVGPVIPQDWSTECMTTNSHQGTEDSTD
Experimental: The activity of acid phosphatase could be kinetically determined substantially more sensitively with 2H-7-O-4-methyl-8-nitrobenzopyran-2-one phosphate (compound S13) than with nitrophenyl phosphate. The determination was carried out in seminal plasma, diluted 1:101 using both substrates. 0.01 ml of diluted sample was added to 1 ml of a buffered substrate solution, pH 4.8 and the extinction changes kinetically recorded at 405 or 365 nm.

Compound: O=[N+]([O-])c1ccccc1O [o-Nitrophenol]
- pKa (pKa of the dyes A-OH): 7.08
- Extinction coefficient ([1]; pH 4.0, 405 nm): 0.47 1·mol^-1·cm^-1·10^3
- Extinction coefficient ([1]; pH 5.0, 405 nm): 0.48 1·mol^-1·cm^-1·10^3
- Extinction coefficient ([1]; pH 6.0, 405 nm): 0.75 1·mol^-1·cm^-1·10^3
- Extinction coefficient ([1]; pH 7.1, 405 nm): 2.34 1·mol^-1·cm^-1·10^3
- Extinction coefficient ([1]; pH 10, 405 nm): 4.01 1·mol^-1·cm^-1·10^3

Compound: O=[N+]([O-])c1ccc(O)cc1 [p-Nitrophenol]
- Extinction coefficient ([1]; pH 4.0, 405 nm): 0.20 1·mol^-1·cm^-1·10^3
- Extinction coefficient ([1]; pH 5.0, 405 nm): 0.40 1·mol^-1·cm^-1·10^3
- Extinction coefficient ([1]; pH 6.0, 405 nm): 1.50 1·mol^-1·cm^-1·10^3
- Extinction coefficient ([1]; pH 7.1, 405 nm): 9.7 1·mol^-1·cm^-1·10^3
- Extinction coefficient ([1]; pH 10, 405 nm): 18.30 1·mol^-1·cm^-1·10^3

Compound: O=[N+]([O-])c1ccccc1O[C@H]1O[C@H](CO)[C@@H](O[C@H]2O[C@H](CO)[C@@H](O[C@H]3O[C@H](CO)[C@@H](O)[C@H](O)[C@H]3O)[C@H](O)[C@H]2O)[C@H](O)[C@H]1O [nitrophenyl derivative, o-nitrophenyl α-maltotrioside]
- delta A/min (α-amylase): 0,020 A/min

Compound: Cc1cc(=O)oc2c([N+](=O)[O-])c(O[C@H]3O[C@H](CO)[C@@H](O[C@H]4O[C@H](CO)[C@@H](O[C@H]5O[C@H](CO)[C@@H](O)[C@H](O)[C@H]5O)[C@H](O)[C@H]4O)[C@H](O)[C@H]3O)ccc12 [compound S10, 2H-7-O-(α-D-Maltotriosyl)-4-methyl-8-nitrobenzopyran-2-one]
- absorbance change, fold greater than with the nitrophenyl derivative (α-amylase): 32 fold
- delta A/min (α-amylase): 0,635 A/min

Compound: O=[N+]([O-])c1ncccc1O[C@H]1O[C@H](CO)[C@@H](O[C@H]2O[C@H](CO)[C@@H](O[C@H]3O[C@H](CO)[C@@H](O)[C@H](O)[C@H]3O)[C@H](O)[C@H]2O)[C@H](O)[C@H]1O [compound S12, 3-O-(α-D-Maltotriosyl)-2-nitropyridine]
- absorbance changes in comparison with the state of the art (α-amylase; without auxiliary enzyme, immediately linear kinetics): sufficiently high absorbance changes

Compound: Cc1cc(=O)oc2c([N+](=O)[O-])c(O[C@H]3O[C@H](CO)[C@@H](O[C@H]4O[C@H](CO)[C@@H](O[C@H]5O[C@H](CO)[C@@H](O[C@H]6O[C@H](CO)[C@@H](O)[C@H](O)[C@H]6O)[C@H](O)[C@H]5O)[C@H](O)[C@H]4O)[C@H](O)[C@H]3O)ccc12 [compound S11, 2H-7-O-(α-D-Maltotetraosyl)-4-methyl-8-nitrobenzopyran-2-one]
- absorbance change, fold greater than with the nitrophenyl derivative (α-amylase): approximately 14 fold
- delta A/min (α-amylase): 0,134 A/min

Compound: N#Cc1c2ccc(=O)cc-2oc2cc(O)ccc12 [compound C1, 3H-7-Hydroxy-9-cyanoxanthen-3-one]
- pKa (pKa of the dyes A-OH): 5.55
- absorption maximum [1]: 578 nm
- molar extinction coefficient ([1]; 578 nm and pH 7.1): 64,420 1.mol^-1.cm^-1

Compound: Cc1cc(=O)oc2c([N+](=O)[O-])c(OP(=O)(O)O)ccc12 [compound S13, 2H-7-O-(Phosphoryl)-4-methyl-8-nitrobenzopyran-2-one]
- absorbance change, fold greater than for nitrophenyl phosphate (acid phosphatase): about 13 fold
- Ratio of the absorbance changes (acid phosphatase; relative to p-nitrophenyl phosphate): 13
- delta A/min (acid phosphatase; seminal plasma diluted 1:101, pH 4.8, 405 or 365 nm): 0,0975 A/min

Other lines, results leading:

- Absorbance Difference/min delta A/min (β-glucosidase): 0,0476 A/min
Compound: O=[N+]([O-])c1ccc(O[C@@H]2O[C@H](CO)[C@@H](O)[C@H](O)[C@H]2O)cc1 [p-nitrophenyl derivative, p-nitrophenyl β-D-glucopyranoside]

- absorption maximum ([1]; pH<6): 390 nm
- absorption maximum ([1]; pH>8): 450 nm
Compound: O=c1oc2cc(O)ccc2cc1[N+](=O)[O-] [7-hydroxy-3-nitrocoumarin]

- fold larger absorbance change per minute than with p-nitrophenyl β-D-glucopyranoside (β-glucosidase): approximately 7 fold
- Absorbance Difference/min delta A/min (β-glucosidase): 0,332 A/min
Compound: O=[N+]([O-])c1ncccc1O[C@@H]1O[C@H](CO)[C@@H](O)[C@H](O)[C@H]1O [compound S5, 3-O-(β-D-Glucopyranosyl)-2-nitropyridine]

- pKa (pKa of the dyes A-OH): 4.45
Compound: Cc1cc(=O)oc2c([N+](=O)[O-])c(O)ccc12 [4-Methyl-8-nitrobenzopyran-2-one, 2H-7-hydroxy-4-methyl-8-nitrobenzopyran-2-one]

- absorbance change (IgE): 0.176
Compound: O=[N+]([O-])c1ccccc1O[C@@H]1O[C@H](CO)[C@H](O)[C@H](O)[C@H]1O [o-Nitrophenyl galactoside, o-nitrophenyl-β-galactoside]

- pKa (pKa of the dyes A-OH): 3.9
- Extinction coefficient ([1]; pH 4.0, 365 nm): 7.84 1·mol^-1·cm^-1·10^3
- Extinction coefficient ([1]; pH 5.0, 365 nm): 11.87 1·mol^-1·cm^-1·10^3
- Extinction coefficient ([1]; pH 6.0, 365 nm): 12.9 1·mol^-1·cm^-1·10^3
- Extinction coefficient ([1]; pH 7.1, 365 nm): 13.2 1·mol^-1·cm^-1·10^3
- Extinction coefficient ([1]; pH 10, 365 nm): 13.2 1·mol^-1·cm^-1·10^3
Compound: O=[N+]([O-])c1nc(Cl)ccc1O [3-Hydroxy-2-nitro-6-chloropyridine]

- pKa (pKa of the dyes A-OH): 5.1
- Extinction coefficient ([1]; pH 4.0, 405 nm): 0.50 1·mol^-1·cm^-1·10^3
- Extinction coefficient ([1]; pH 5.0, 405 nm): 2.32 1·mol^-1·cm^-1·10^3
- Extinction coefficient ([1]; pH 6.0, 405 nm): 5.09 1·mol^-1·cm^-1·10^3
- Extinction coefficient ([1]; pH 7.1, 405 nm): 5.80 1·mol^-1·cm^-1·10^3
- Extinction coefficient ([1]; pH 10, 405 nm): 5.90 1·mol^-1·cm^-1·10^3
Compound: O=[N+]([O-])c1ncccc1O [3-Hydroxy-2-nitropyridine]

- Extinction coefficient ([1]; pH 4.0, 574 nm, mercury lamp photometer, calculated): 1.00 1·mol^-1·cm^-1·10^3
- Extinction coefficient ([1]; pH 4.0, 578 nm, variable wavelength photometer): 0.75 1·mol^-1·cm^-1·10^3
- Extinction coefficient ([1]; pH 5.0, 574 nm, mercury lamp photometer, calculated): 7.4 1·mol^-1·cm^-1·10^3
- Extinction coefficient ([1]; pH 5.0, 578 nm, variable wavelength photometer): 5.7 1·mol^-1·cm^-1·10^3
- Extinction coefficient ([1]; pH 6.0, 574 nm, mercury lamp photometer, calculated): 29.64 1·mol^-1·cm^-1·10^3
- Extinction coefficient ([1]; pH 6.0, 578 nm, variable wavelength photometer): 22.80 1·mol^-1·cm^-1·10^3
- Extinction coefficient ([1]; pH 7.1, 574 nm, mercury lamp photometer): 49.87 1·mol^-1·cm^-1·10^3
- Extinction coefficient ([1]; pH 7.1, 578 nm, variable wavelength photometer): 39.6 1·mol^-1·cm^-1·10^3
- Extinction coefficient ([1]; pH 10, 574 nm, mercury lamp photometer): 55.42 1·mol^-1·cm^-1·10^3
- Extinction coefficient ([1]; pH 10, 578 nm, variable wavelength photometer): 41.000 1·mol^-1·cm^-1·10^3
Compound: O=c1ccc2nc3ccc(O)cc3oc-2c1 [Resorufin, 3H-7-hydroxyphenoxazin-3-one]

- pKa (pKa of the dyes A-OH): 3.1
- Extinction coefficient ([1]; pH 4.0, 405 nm): 4.93 1·mol^-1·cm^-1·10^3
- Extinction coefficient ([1]; pH 5.0, 405 nm): 5.34 1·mol^-1·cm^-1·10^3
- Extinction coefficient ([1]; pH 6.0, 405 nm): 5.40 1·mol^-1·cm^-1·10^3
- Extinction coefficient ([1]; pH 7.1, 405 nm): 5.48 1·mol^-1·cm^-1·10^3
- Extinction coefficient ([1]; pH 10, 405 nm): 5.4 1·mol^-1·cm^-1·10^3
Compound: O=[N+]([O-])c1ccnc(Cl)c1O [3-Hydroxy-4-nitro-2-chloropyridine]

- absorbance change (IgE): 0.298
- fold higher absorbance than o-nitrophenyl-β-galactoside (IgE): approximately 1.7 fold
Compound: O=[N+]([O-])c1ncccc1O[C@@H]1O[C@H](CO)[C@H](O)[C@H](O)[C@H]1O [compound S7, 3-O-(β-D-Galactopyranosyl)-2-nitropyridine]
